The target in assay [1] is T1, Alkaline phosphatase, tissue-nonspecific isozyme (Homo sapiens, UniProt P05186).
T1 sequence (P05186 whole entry): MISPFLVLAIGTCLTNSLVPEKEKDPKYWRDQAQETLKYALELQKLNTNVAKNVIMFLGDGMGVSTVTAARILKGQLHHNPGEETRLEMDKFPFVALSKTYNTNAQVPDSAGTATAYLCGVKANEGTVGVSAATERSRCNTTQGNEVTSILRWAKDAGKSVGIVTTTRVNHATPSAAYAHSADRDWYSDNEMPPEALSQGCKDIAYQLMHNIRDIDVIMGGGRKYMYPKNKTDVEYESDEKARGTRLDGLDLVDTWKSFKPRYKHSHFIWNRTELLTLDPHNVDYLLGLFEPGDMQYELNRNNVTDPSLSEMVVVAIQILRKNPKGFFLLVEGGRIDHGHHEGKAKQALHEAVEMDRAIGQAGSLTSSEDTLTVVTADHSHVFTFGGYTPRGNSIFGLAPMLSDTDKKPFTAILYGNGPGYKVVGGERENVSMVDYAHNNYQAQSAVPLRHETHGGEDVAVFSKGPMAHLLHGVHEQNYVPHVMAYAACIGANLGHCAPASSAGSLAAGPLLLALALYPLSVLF
Nature of the assay: potency against alkaline phosphatase TNAP – biochemical, luminescent, dose response, SAR follow-up (AID 1056).

The target of assay [2] is Glyceraldehyde-3-phosphate dehydrogenase (Homo sapiens, UniProt P04406).
In assay [3] the test system is HEK293. Nature of the assay: HEK293T cell viability loss, resazurin readout – resazurin fluorescence, cytotoxicity control for NF-kB activator project, SAR follow-up (AID 493251). The settings on record: Homo sapiens. Type of assay: functional, cell-based.
In assay [4] the test system is HEK293. Description: SAR Analysis of small molecule inhibitors of T-cell specific antigen receptor-induced NF-kB activation in a HEK-293T cell line using a luminescence assay - Set 2. [Related pubchem assays (depositor defined):AID435003, AID435012, AID489026]. Type of assay: functional, cell-based. The settings on record: Homo sapiens.
A further assay relates to Jurkat. Description: SAR Analysis of small molecule inhibitors of T-cell specific antigen receptor-induced NF-kB activation in a Jurkat cell line using a luminescence assay - Set 2. [Related pubchem assays (depositor defined):AID435003, AID435012, AID465]. The note with it: Homo sapiens. Type of assay: functional, cell-based.
A short description of assay [5]: microbe, parasite or virus in culture. Format: functional. The note with it: Mycobacterium tuberculosis.
The next assay has as its system Vero. Nature of the assay: cells. Type of assay: functional. The note with it: Chlorocebus sabaeus.
A short description of assay [6]: HEK-293T cell viability reduction – luminescence, B-cell screen hits, cytotoxicity control for BCR NF-kB inhibitor project, dose response (AID 489021).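 Note: HEK-293T cells carrying an NF-kB luciferase reporter; cells exposed to compound for about 14 hours before viability readout.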 Format: functional, cell-based.
Assay [7] is described as follows: viability of uninfected HEp-2 cells – cell-based, HTS, cytotoxicity control for RSV inhibitor project, dose response (AID 2410). The note with it: human respiratory syncytial virus. Type of assay: functional.
Assay [8] can be described thus: Luminescence-based dose response cell-based high throughput screening assay for cytotoxic compounds using the IEC-6 intestinal epithelial cell line. [Related pubchem assays: 1858 (Summary AID.), 1825 (Counterscreen.), 1907 (Confirmation screen.)]. Format: functional.
The target of assay [9] is T2, Microphthalmia-associated transcription factor (Homo sapiens, UniProt O75030).
T2 sequence (O75030 whole entry): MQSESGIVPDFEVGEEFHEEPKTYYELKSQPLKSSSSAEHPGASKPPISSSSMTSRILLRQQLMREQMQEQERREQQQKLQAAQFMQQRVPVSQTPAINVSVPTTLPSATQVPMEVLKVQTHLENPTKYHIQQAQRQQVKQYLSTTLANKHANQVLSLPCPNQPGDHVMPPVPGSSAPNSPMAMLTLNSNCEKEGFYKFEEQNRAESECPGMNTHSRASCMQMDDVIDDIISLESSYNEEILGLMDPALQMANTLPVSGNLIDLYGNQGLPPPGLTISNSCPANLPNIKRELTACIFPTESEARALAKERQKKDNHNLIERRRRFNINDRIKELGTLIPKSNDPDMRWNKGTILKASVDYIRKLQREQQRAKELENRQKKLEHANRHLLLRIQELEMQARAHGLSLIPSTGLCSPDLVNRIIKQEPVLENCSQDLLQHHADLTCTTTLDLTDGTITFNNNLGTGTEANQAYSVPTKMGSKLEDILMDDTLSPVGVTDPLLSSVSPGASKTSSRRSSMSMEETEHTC
Nature of the assay: reducers of TRPM1 reporter luminescence, concentration series – cell-based, SK-MEL-5, cherry-picked, set 3, MITF inhibitor project, dose response (AID 493073).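 Note: SK-MEL-5 melanoma cells with luciferase driven by the MITF target TRPM1 promoter.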 Type of assay: functional.

Assay [10] concerns the target Luciferin 4-monooxygenase (Photinus pyralis, UniProt P08659). Nature of the assay: Counter Screen for Luciferase-based Assay Positives. [Related pubchem assays: 620, 618, 411 ].
Assay [11] concerns the target DNA dC->dU-editing enzyme APOBEC-3G (Homo sapiens, UniProt Q9HC16). Type of assay: functional.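 Note: Dose-response counterscreen measuring inhibition of APOBEC3G DNA deaminase activity, run while confirming APOBEC3A inhibitors.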
Another assay relates to HT-1080. Nature of the assay: HT1080 cell viability loss – fluorescence readout (AID 620). Format: functional, cell-based. The note with it: Homo sapiens.
In assay [12] the target is DNA dC->dU-editing enzyme APOBEC-3A (Homo sapiens, UniProt P31941). Description: Dose Response confirmation of small molecule APOBEC3A DNA Deaminase Inhibitors via a fluorescence-based single-stranded DNA deaminase assay. [Related pubchem assays (depositor defined):AID493011, AID493024]. Type of assay: functional.
In a further assay the test system is H4. Nature of the assay: Luminescence Cell-Based Dose Response HTS to Identify Activators of 5'UTR Stem-Loop Driven Prion Protein mRNA Translation in H4 Neuroglioblastoma Cells. [Related pubchem assays: 1829 (Project Summary), 1814 (Primary HTS)]. Type of assay: functional. The settings on record: Homo sapiens.
Assay [13] has as its system HEK293. Description: cells. Type of assay: functional, cell-based. The note with it: Homo sapiens.
A short description of assay [14]: cells. Type of assay: functional, cell-based.
Assay [15] is described as follows: Luminescence Cell-Based Dose Response HTS to Identify Activators of Luciferase Translation or Activity in H4 […] Cells. [Related pubchem assays: 1829 (Project Summary), 1814 (Primary HTS)]. Type of assay: functional.
A short description of assay [16]: Luminescence Cell-Based Dose Confirmation HTS to Identify Activators of 5'UTR Stem-Loop Driven Alpha-Synuclein mRNA Translation in H4 Neuroglioblastoma Cells. [Related pubchem assays: 1829 (Project Summary), 1814 (Primary HTS)]. Format: functional.
In assay [17] the target is T3, Nuclear receptor subfamily 0 group B member 1 (Homo sapiens, UniProt P51843).
T3 sequence (P51843 whole entry): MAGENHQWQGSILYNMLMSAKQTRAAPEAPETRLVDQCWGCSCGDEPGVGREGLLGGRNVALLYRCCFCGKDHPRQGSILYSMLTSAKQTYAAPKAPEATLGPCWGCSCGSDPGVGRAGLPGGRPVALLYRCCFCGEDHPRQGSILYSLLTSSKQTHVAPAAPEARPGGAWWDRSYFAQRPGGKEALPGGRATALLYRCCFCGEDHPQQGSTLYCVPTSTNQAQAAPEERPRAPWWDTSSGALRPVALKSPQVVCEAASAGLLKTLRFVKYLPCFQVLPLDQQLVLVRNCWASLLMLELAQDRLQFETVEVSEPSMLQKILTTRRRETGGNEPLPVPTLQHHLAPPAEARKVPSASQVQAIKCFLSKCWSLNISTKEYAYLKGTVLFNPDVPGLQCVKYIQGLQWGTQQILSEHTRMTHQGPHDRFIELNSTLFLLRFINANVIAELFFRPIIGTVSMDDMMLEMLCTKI
Description: Luminescence-based cell-based high throughput dose response assay for inhibitors of the orphan nuclear receptor subfamily 0, group B, member 1 (DAX1; NR0B1). [Related pubchem assays (depositor defined):AID504766, AID504790]. Format: functional.

Assay [18] is described as follows: cells. Format: functional, cell-based. The source holds these as a separate data set.
Assay [19] concerns the target Peroxisome proliferator-activated receptor gamma/Nuclear receptor coactivator 3 (Homo sapiens, UniProt P37231). Description: TR-FRET dose response biochemical High Throughput Screening assay for agonists of the steroid receptor coactivator 3 (SRC-3) recruitment by the peroxisome proliferator-activated receptor gamma (PPAR gamma): non-selective agonists. [Related pubchem assays: 1301 (Confirmation screen.), 1048 (Primary screen.)]. Format: functional. Background: In TR-FRET formats the signal depends on donor and acceptor labels being close together.

For assay [20], the target named is Peroxisome proliferator-activated receptor gamma/Nuclear receptor coactivator 2 (Homo sapiens, UniProt P37231). Nature of the assay: TR-FRET dose response biochemical High Throughput Screening assay for agonists of the steroid receptor coactivator 2 (SRC-2) recruitment by the peroxisome proliferator-activated receptor gamma (PPAR gamma): non-selective agonists. [Related pubchem assays: 1297, 1032 ]. Format: functional.

Assay [21] concerns the target Peroxisome proliferator-activated receptor gamma/Nuclear receptor coactivator 1 (Homo sapiens, UniProt P37231). Description: TR-FRET dose response biochemical High Throughput Screening assay for agonists of the steroid receptor coactivator 1 (SRC-1) recruitment by the peroxisome proliferator-activated receptor gamma (PPAR gamma): non-selective agonists. [Related pubchem assays (depositor defined):AID1300, AID1808, AID504735, AID631]. Format: protein assay.

In assay [22] the target is T4, Oxysterols receptor LXR-beta (Homo sapiens, UniProt P55055).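 Note: agonist activity at LXR measured by a cell-based luminescence readout across a dose range, run as a counterscreen for daf-12 agonists; HEK293 cells with Gal4-LXR fusion and GAL4-driven luciferase reporter; potency for activation of Gal4-LXR reporter so compounds are agonists.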
T4 sequence (P55055 whole entry): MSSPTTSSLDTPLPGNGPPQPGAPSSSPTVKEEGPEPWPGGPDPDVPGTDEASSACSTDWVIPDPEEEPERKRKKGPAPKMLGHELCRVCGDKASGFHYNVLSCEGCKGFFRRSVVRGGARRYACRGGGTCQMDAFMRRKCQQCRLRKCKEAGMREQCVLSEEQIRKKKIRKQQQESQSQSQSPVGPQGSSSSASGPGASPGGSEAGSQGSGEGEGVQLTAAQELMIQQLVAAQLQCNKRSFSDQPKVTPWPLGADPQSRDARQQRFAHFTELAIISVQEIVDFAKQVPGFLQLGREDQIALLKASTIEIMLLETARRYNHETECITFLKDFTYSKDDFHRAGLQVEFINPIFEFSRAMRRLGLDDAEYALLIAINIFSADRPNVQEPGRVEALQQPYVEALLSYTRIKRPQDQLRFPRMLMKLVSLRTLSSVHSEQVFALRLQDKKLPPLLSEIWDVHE
Format: functional, cell-based.

Each structure is given as a SMILES string. Activity calls are given as the source filed them.

The term IC50 denotes the concentration that gives 50% inhibition. Broadly, the AC50 is the concentration giving half of the maximal activity seen. For orientation: EC50 means the concentration at which the effect is half-maximal.

Chain of Glyceraldehyde-3-phosphate dehydrogenase (P04406 whole entry): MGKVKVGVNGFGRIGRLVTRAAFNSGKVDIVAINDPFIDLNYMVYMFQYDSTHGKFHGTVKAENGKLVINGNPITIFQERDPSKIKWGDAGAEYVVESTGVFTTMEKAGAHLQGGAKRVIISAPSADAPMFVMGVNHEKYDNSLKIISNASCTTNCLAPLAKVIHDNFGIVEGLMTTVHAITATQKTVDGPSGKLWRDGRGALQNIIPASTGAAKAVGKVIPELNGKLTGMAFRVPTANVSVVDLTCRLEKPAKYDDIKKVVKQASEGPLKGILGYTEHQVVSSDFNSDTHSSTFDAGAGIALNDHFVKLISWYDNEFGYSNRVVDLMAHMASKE
Chain of DNA dC->dU-editing enzyme APOBEC-3G (Q9HC16 whole entry): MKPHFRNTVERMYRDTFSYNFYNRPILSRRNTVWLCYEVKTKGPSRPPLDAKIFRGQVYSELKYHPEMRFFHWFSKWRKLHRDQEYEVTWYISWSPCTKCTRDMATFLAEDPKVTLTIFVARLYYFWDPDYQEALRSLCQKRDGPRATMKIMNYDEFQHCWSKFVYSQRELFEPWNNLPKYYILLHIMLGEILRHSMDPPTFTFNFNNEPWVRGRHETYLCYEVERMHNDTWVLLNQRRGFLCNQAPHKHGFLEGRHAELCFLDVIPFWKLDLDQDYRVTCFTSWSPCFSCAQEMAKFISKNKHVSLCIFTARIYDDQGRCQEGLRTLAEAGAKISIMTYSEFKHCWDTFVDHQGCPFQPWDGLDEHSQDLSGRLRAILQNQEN
Chain of DNA dC->dU-editing enzyme APOBEC-3A (P31941 whole entry): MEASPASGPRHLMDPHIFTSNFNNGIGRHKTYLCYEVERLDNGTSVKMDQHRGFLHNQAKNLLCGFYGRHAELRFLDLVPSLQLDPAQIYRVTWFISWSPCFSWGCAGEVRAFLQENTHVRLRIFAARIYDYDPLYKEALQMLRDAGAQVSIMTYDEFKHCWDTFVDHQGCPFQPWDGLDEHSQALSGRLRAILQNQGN
Chain of Luciferin 4-monooxygenase (P08659 whole entry): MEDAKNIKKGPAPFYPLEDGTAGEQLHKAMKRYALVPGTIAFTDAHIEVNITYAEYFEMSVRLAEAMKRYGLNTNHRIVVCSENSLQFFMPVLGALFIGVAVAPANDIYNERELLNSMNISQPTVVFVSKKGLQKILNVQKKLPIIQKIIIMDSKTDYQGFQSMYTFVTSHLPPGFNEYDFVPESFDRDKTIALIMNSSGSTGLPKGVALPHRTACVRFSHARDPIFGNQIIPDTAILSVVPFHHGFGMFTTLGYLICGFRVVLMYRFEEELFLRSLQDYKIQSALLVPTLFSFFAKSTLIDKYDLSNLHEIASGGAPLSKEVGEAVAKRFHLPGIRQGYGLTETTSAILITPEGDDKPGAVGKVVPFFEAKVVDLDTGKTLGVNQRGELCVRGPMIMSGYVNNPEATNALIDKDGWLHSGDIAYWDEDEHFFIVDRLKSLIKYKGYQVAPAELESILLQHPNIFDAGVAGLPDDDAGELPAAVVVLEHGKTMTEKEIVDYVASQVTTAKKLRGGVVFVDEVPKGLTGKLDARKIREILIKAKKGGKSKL
Chain of Peroxisome proliferator-activated receptor gamma/Nuclear receptor coactivator 3 (P37231 whole entry): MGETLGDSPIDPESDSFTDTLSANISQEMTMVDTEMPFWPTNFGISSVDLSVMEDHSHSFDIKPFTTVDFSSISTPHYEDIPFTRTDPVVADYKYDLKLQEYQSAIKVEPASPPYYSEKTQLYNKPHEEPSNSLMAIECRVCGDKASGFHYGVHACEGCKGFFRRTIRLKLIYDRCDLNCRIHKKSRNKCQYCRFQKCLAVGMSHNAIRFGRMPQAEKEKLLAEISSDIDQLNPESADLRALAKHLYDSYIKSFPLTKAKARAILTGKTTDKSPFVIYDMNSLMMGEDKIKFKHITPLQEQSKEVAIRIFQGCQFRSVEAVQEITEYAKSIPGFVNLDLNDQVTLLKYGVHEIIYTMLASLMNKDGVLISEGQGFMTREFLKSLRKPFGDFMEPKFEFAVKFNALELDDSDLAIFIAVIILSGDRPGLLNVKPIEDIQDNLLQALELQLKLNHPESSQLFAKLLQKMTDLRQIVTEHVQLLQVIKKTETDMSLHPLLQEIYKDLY
Chain of Peroxisome proliferator-activated receptor gamma/Nuclear receptor coactivator 3 (Q9Y6Q9 whole entry, further chain): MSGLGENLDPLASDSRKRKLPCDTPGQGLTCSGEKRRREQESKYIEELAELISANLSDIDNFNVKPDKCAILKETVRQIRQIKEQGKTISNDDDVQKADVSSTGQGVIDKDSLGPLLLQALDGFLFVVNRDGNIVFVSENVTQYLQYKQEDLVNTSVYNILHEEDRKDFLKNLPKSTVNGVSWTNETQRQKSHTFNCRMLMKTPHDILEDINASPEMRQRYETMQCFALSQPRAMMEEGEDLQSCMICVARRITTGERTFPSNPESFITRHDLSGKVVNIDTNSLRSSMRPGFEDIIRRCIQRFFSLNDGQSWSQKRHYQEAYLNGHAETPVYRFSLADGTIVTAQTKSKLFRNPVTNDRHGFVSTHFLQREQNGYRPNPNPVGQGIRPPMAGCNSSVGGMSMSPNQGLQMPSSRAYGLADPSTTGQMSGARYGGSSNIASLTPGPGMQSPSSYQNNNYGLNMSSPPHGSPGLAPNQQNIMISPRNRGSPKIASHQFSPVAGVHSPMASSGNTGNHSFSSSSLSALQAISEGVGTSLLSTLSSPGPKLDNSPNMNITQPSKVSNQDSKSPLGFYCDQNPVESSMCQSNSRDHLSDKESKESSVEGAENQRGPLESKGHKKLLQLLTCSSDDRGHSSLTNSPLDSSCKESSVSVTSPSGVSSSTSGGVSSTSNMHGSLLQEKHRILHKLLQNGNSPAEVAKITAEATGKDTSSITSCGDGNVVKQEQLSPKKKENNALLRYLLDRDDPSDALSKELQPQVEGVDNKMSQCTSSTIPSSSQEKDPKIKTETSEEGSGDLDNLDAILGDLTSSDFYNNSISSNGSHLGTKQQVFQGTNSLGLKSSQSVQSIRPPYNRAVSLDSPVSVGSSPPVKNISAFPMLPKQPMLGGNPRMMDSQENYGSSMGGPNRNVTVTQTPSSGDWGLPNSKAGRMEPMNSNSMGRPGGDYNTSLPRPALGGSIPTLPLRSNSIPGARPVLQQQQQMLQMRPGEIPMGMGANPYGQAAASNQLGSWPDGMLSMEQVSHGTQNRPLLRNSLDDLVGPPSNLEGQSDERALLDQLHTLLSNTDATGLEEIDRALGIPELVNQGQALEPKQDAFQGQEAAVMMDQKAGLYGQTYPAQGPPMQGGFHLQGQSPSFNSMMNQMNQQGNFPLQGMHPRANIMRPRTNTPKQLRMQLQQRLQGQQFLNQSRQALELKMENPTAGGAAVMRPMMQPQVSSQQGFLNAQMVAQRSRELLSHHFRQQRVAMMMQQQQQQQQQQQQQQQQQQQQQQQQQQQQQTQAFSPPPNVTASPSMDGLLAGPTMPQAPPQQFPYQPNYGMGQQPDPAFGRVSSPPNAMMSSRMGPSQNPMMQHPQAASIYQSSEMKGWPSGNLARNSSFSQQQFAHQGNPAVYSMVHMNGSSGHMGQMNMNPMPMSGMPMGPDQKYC

In the case of `c1cc(Cn2ccnc2)ccn1`, the figures for the IC50 in assay [1] and in [2] were > 100 µM (inactive) and > 100 µM (not active), respectively.

On to `Cc1cc(NC(=O)c2ccc([N+](=O)[O-])o2)cc(-c2nc3ccccc3o2)c1O`, for which the values for the IC50 in the assay on HEK293 [3], in the assay on HEK293 [4] and in the assay on Jurkat were > 80 µM (inactive), > 80 µM (inactive) and 3.42 µM (active), respectively.

`Cc1[nH]c2ccccc2c1/C=N/Nc1nc(Nc2ccccc2)nc(N2CCOCC2)n1`: the CC50 was 24.1 µM (active) in assay [5], 3.33 µM (active) in the assay on Vero and 22.6 µM (active) in assay [7]. Besides, the IC50 in [6] was 66.7 µM (inactive); in [8], 0.482 µM (active).

With `COc1ccc(OC)c(S(=O)(=O)Nc2cccc3ccccc23)c1`, the results for the IC50 in assay [1] and in [2] were > 100 µM (inactive) and > 100 µM (not active), respectively.

Consider `CC1=NC(=O)C(N=Nc2cccc(C(=O)O)c2)N1c1ccccc1` (configuration not stated), for which, in assay [9], the AC50 was 8.62 µM (active). In addition, the EC50 was 0.67 µM (active) in assay [10] and > 50 µM (not active) with HT-1080. Also, the IC50 in assay [11] is 6.48 µM (active); in [12], 4.74 µM (active).

As to `O=C(CSc1nnc(NC(=O)c2ccccc2C(=O)O)s1)Nc1ccccc1Cl`, the IC50 in assay [11] was 9.42 µM (active); in [12] it was 14 µM (active).

With `O=C(Nc1ncccc1O)c1ccc(S(=O)(=O)Nc2ccccc2)cc1`, the EC50 is 22.9 µM (active) in the assay on H4; 23.3 µM (active) in the assay “cells [14]”; 19.9 µM (active) in assay [15]; 12.2 µM (active) in assay [16]; > 350 µM (not active) in “cells [18]”. Moreover, the 50% inhibitory concentration (IC50) was > 0.00338 µM (active) with HEK293 [13] and > 67.6 µM (inactive) in assay [17].

Turning to `COc1ccc(OC)c(S(=O)(=O)Nc2ccc3ncccc3c2)c1`, the IC50 in assay [1] was > 100 µM (inactive); in assay [2], > 100 µM (not active).

In the case of `CCn1c(=O)cc(SCC(=O)N2CCCCC2)c2ccccc21`, the EC50 was > 79.4 µM (not active) in assay [19], > 79.4 µM (not active) in assay [20] and > 79.4 µM (inactive) in assay [21]. In assay [6], the IC50 is > 80 µM (inactive).

As for `Oc1[nH]c2ccccc2c1/C=N/c1ccccc1`, the IC50 (with HEK293 [13]; in [17]) was > 67.5 µM (inactive) throughout. The EC50 in [22] is > 67.5 µM (inactive).

In the case of `Cc1cc2nc(CSc3ccc(Cl)cc3)cc(O)n2n1`, the IC50 (with HEK293 [13]; in assay [17]) was > 67.6 µM (inactive) throughout.

For the origin of these results see ChEMBL document CHEMBL1201862, “PubChem BioAssay data set” (2004).
